What follows are molecules tested against T1, Ba/F3-FL-TYK2-P760L cells (Homo sapiens, UniProt P29597, P760L, cells depend on it) (assay: Anti-proliferative assay, Ba/F3-FL-TYK2-P760L cells (Cell-Titer Glo)). Conditions: 72 h, read-out: BaF3-FL-T2P760L IC50.
T1 construct: BaF3-FL-T2P760L (nM)
Format: cell-based
Procedure, shortened: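 Ba/F3 cells made IL-3-independent by TEL-fused or full-length mutant JAK-family kinases, seeded at 2000/well and dosed after 24 h with 9 three-fold dilutions topping at 20 μM. Viability after 72 h at 37 °C, 5% CO2 by Cell-Titer Glo ATP luminescence.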

T1 sequence (P29597 whole entry P760L): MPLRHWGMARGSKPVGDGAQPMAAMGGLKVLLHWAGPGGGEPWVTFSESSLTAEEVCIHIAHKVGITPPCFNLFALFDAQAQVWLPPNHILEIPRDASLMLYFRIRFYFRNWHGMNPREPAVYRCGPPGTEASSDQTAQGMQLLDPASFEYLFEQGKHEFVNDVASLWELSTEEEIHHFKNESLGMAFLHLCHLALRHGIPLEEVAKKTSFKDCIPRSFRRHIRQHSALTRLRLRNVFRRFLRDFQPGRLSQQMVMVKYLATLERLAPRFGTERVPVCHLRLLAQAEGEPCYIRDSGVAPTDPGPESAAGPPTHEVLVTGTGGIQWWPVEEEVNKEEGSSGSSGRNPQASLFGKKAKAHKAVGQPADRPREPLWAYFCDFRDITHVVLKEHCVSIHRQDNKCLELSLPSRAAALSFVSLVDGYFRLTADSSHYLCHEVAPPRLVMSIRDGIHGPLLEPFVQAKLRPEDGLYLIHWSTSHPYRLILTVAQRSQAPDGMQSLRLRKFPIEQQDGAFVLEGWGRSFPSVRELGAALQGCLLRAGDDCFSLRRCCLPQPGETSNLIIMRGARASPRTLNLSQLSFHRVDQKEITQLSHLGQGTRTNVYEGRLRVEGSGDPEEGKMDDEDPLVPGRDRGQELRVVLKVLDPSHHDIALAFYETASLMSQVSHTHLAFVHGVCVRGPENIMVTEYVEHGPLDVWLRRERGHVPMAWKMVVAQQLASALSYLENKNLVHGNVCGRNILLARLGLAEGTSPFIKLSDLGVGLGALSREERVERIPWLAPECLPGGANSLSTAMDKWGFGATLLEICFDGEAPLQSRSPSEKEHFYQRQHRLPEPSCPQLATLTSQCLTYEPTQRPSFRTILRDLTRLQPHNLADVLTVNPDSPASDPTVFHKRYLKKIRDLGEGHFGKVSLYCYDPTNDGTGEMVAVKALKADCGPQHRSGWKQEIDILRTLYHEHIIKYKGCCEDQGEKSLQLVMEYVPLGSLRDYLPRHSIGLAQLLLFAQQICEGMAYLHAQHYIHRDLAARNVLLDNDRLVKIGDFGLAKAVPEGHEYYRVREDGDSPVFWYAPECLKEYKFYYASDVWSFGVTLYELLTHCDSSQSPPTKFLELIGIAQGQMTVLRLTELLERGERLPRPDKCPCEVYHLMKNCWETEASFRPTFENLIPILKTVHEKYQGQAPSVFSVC

Going from `[2H]C([2H])([2H])NC(=O)c1cnc(NC(=O)C2CC2)cc1Nc1cn(C)c2ccn(C3CC3)c(=O)c12` [Example 108, 6-(Cyclopropanecarboxamido)-4-((5-cyclopropyl-1-methyl-4-oxo-4,5-dihydro-1H-pyrrolo[3,2-c]pyridin-3-yl)amino)-N-(methyl-d3)nicotinamide] to `[2H]C([2H])([2H])NC(=O)c1cnc(NC(=O)C2CC2)cc1Nc1cn(C)c2ccn([C@H]3CCOC3)c(=O)c12` [Example 115, 6-(Cyclopropanecarbonylamino)-4-[[1-methyl-4-oxo-5-[(3S)-tetrahydrofuran-3-yl]pyrrolo[3,2-c]pyridin-3-yl]amino]-N-(methyl-d3)pyridine-3-carboxamide], the GI50 rises from 523 nM to 1100 nM (2.1-fold).

Compared with `[2H]C([2H])([2H])NC(=O)c1nnc2cc1Nc1cc(cc(-c3ncn(C)n3)c1OC)CCC(O)c1nc(ccc1F)N2` (stereo not drawn) [Example 92, 18-Fluoro-16-hydroxy-10-methoxy-N-(methyl-d3)-11-(1-methyl-1H-1,2,4-triazol-3-yl)-2,4,5,8,21-pentaazatetracyclo[15.3.1.1^{3,7}.1^{9,13}]tricosa-1(20),3,5,7(23),9(22),10,12,17(21),18-nonaene-6-carboxamide], `[2H]C([2H])([2H])NC(=O)c1nnc2cc1Nc1cc(cc(-c3nnc(C)o3)c1OC)COCc1nc(ccc1F)N2` [Example 90, 18-Fluoro-10-methoxy-N-(methyl-d3)-11-(5-methyl-1,3,4-oxadiazol-2-yl)-15-oxa-2,4,5,8,21-pentaazatetracyclo[15.3.1.1^{3,7}.1^{9,13}]tricosa-1(20),3,5,7(23),9(22),10,12,17(21),18-nonaene-6-carboxamide] is 2.4-fold lower in GI50: 300 nM for the first, 126 nM for the second.

Going from `[2H]C([2H])([2H])NC(=O)c1cnc(NC(=O)[C@@H]2C[C@H]2F)cc1Nc1cn(C)c2ccn(CC)c(=O)c12` [Example 103, 4-[(5-Ethyl-1-methyl-4-oxo-pyrrolo[3,2-c]pyridin-3-yl)amino]-6-[[(1S,2R)-2-fluorocyclopropanecarbonyl]amino]-N-(methyl-d3)pyridine-3-carboxamide] to `[2H]C([2H])([2H])NC(=O)c1cnc(NC(=O)C2(C(F)(F)F)CC2)cc1Nc1cn(C)c2ccn(CC)c(=O)c12` [Example 104, 4-[(5-Ethyl-1-methyl-4-oxo-pyrrolo[3,2-c]pyridin-3-yl)amino]-N-(methyl-d3)-6-[[1-(trifluoromethyl)cyclopropanecarbonyl]amino]pyridine-3-carboxamide], the GI50 rises from 761 nM to 2420 nM (3.2-fold).

Compared with `CCn1ncc2ccc(Nc3ccnc(NC(=O)C4CC4)c3)c(OC)c21` [Example 237, N-(4-((1-ethyl-7-methoxy-1H-indazol-6-yl)amino)pyridin-2-yl)cyclopropanecarboxamide], `CCCn1ncc2ccc(Nc3cc(NC(=O)C4CC4)ncc3C(=O)NC)c(OC)c21` [Example 51, 6-(Cyclopropanecarboxamido)-4-((7-methoxy-1-propyl-1H-indazol-6-yl)amino)-N-methylnicotinamide] is 51-fold lower in GI50: 4070 nM for the first, 80.2 nM for the second.

Compared with `[2H]C([2H])([2H])NC(=O)c1cnc(NC(=O)C2CC2)cc1Nc1ccc2cnn(C([2H])([2H])[2H])c2c1OC` [Example 140, 6-(Cyclopropanecarboxamido)-4-((7-methoxy-1-(methyl-d3)-1H-indazol-6-yl)amino)-N-(methyl-d3)nicotinamide], `[2H]C([2H])([2H])NC(=O)c1cnc(NC(=O)C2CC2)cc1Nc1ccc2onc(CC)c2c1OC` [Example 233, 6-(Cyclopropanecarboxamido)-4-((3-ethyl-4-methoxybenzo[d]isoxazol-5-yl)amino)-N-(methyl-d3)nicotinamide] is 40-fold higher in GI50: 82.4 nM for the first, 3270 nM for the second.

Going from `[2H]C([2H])([2H])NC(=O)c1cnc2cc1Nc1cc(cc(-c3ncn(C4CC4)n3)c1OC)COCc1cc(F)cc(n1)N2` [Example 89, 11-(1-Cyclopropyl-1H-1,2,4-triazol-3-yl)-19-fluoro-10-methoxy-N-(methyl-d3)-15-oxa-2,4,8,21-tetraazatetracyclo[15.3.1.1^{3,7}.1^{9,13}]tricosa-1(21),3,5,7(23),9(22),10,12,17,19-nonaene-6-carboxamide] to `[2H]C([2H])([2H])NC(=O)c1cnc2nc1Nc1cc(cc(-c3ncn(C)n3)c1OC)COCc1cc(F)cc(n1)N2` [Example 81, 19-Fluoro-10-methoxy-N-(methyl-d3)-11-(1-methyl-1H-1,2,4-triazol-3-yl)-15-oxa-2,4,8,21,23-pentaazatetracyclo[15.3.1.1^{3,7}.1^{9,13}]tricosa-1(21),3,5,7(23),9(22),10,12,17,19-nonaene-6-carboxamide], the GI50 rises from 32.2 nM to 330 nM (10-fold).

Compared with `[2H]C([2H])([2H])NC(=O)c1cnc(Nc2ccc(F)cn2)cc1Nc1ccn2ncc(C)c2c1OC` [Example 222, 6-((5-Fluoropyridin-2-yl)amino)-4-((4-methoxy-3-methylpyrazolo[1,5-a]pyridin-5-yl)amino)-N-(methyl-d3)nicotinamide], `[2H]C([2H])([2H])NC(=O)c1cnc(Nc2ccc(F)cn2)cc1Nc1cn(C)c2c(Cl)cn(C)c(=O)c12` [Example 159, 4-((7-Chloro-1,5-dimethyl-4-oxo-4,5-dihydro-1H-pyrrolo[3,2-c]pyridin-3-yl)amino)-6-((5-fluoropyridin-2-yl)amino)-N-(methyl-d3)nicotinamide] is 5.5-fold lower in GI50: 155 nM for the first, 28.3 nM for the second.

Going from `[2H]C([2H])([2H])NC(=O)c1cnc(NC(=O)C2CC2)cc1Nc1csc2c(F)cn(C)c(=O)c12` [Example 177, 6-(Cyclopropanecarboxamido)-4-((7-fluoro-5-methyl-4-oxo-4,5-dihydrothieno[3,2-c]pyridin-3-yl)amino)-N-(methyl-d3)nicotinamide] to `[2H]C([2H])([2H])NC(=O)c1cnc(NC(=O)C2CC2)cc1Nc1cn(C)c2ccn(-c3cnn(C)c3)c(=O)c12` [Example 120, 6-(Cyclopropanecarboxamido)-N-(methyl-d3)-4-((1-methyl-5-(1-methyl-1H-pyrazol-4-yl)-4-oxo-4,5-dihydro-1H-pyrrolo[3,2-c]pyridin-3-yl)amino)nicotinamide], the GI50 rises from 91 nM to 1120 nM (12-fold).

`[2H]C([2H])([2H])NC(=O)c1cnc(Nc2cc(F)ccn2)cc1Nc1cn(C)c2c(Cl)cn(CC)c(=O)c12` [Example 162, 4-((7-Chloro-5-ethyl-1-methyl-4-oxo-4,5-dihydro-1H-pyrrolo[3,2-c]pyridin-3-yl)amino)-6-((4-fluoropyridin-2-yl)amino)-N-(methyl-d3)nicotinamide] and `[2H]C([2H])([2H])NC(=O)c1cnc(Nc2ccc(F)cn2)cc1Nc1cn(C)c2c(Cl)cn(CC)c(=O)c12` [Example 160, 4-((7-Chloro-5-ethyl-1-methyl-4-oxo-4,5-dihydro-1H-pyrrolo[3,2-c]pyridin-3-yl)amino)-6-((5-fluoropyridin-2-yl)amino)-N-(methyl-d3)nicotinamide] are within 1.5-fold of each other in GI50: 25.9 nM for the first, 29.7 nM for the second.

First: CNC(=O)c1cnc(NC(=O)C2CC2)nc1Nc1cccc(OC2CCOCC2)c1OC [Example 7, 2-(Cyclopropanecarboxamido)-4-((2-methoxy-3-((tetrahydro-2H-pyran-4-yl)oxy)phenyl)amino)-N-methylpyrimidine-5-carboxamide]
Second: CNC(=O)c1cnc(Nc2ccc(F)cc2)nc1Nc1cccc(OC2CCOCC2)c1OC [Example 6, 2-((4-Fluorophenyl)amino)-4-((2-methoxy-3-((tetrahydro-2H-pyran-4-yl)oxy)phenyl)amino)-N-methylpyrimidine-5-carboxamide]
The GI50 of the first is 8.9-fold higher: 8020 nM for the first, 897 nM for the second.

Compared with `CCn1cc(Nc2cc(NC(=O)C3CC3)ncc2C(=O)NC)c2c(=O)n([C@H](C)C(F)(F)F)cnc21` (single isomer, unassigned) [Example 254A, (R*)-6-(cyclopropanecarboxamido)-4-((7-ethyl-4-oxo-3-(1,1,1-trifluoropropan-2-yl)-4,7-dihydro-3H-pyrrolo[2,3-d]pyrimidin-5-yl)amino)-N-(methyl-d3)nicotinamide], `CNC(=O)c1cnc(NC(=O)C2CC2)cc1Nc1cn(C)c2ncn([C@H](C)C(F)(F)F)c(=O)c12` (single isomer, unassigned) [Example 234A, (R*)-6-(cyclopropanecarboxamido)-N-(methyl-d3)-4-((7-methyl-4-oxo-3-(1,1,1-trifluoropropan-2-yl)-4,7-dihydro-3H-pyrrolo[2,3-d]pyrimidin-5-yl)amino)nicotinamide] is 1.9-fold lower in GI50: 179 nM for the first, 96.2 nM for the second.

Compared with `[2H]C([2H])([2H])NC(=O)c1cnc(Nc2ccc(C)nn2)nc1Nc1cccc(-c2ncn(C)n2)c1OC` [Example 61, 4-((2-Methoxy-3-(1-methyl-1H-1,2,4-triazol-3-yl)phenyl)amino)-N-(methyl-d3)-2-((6-methylpyridazin-3-yl)amino)pyrimidine-5-carboxamide], `CNC(=O)c1cnc(Nc2ccc(F)cn2)cc1Nc1cccc(C2(F)CC2)c1OC` [Example 56, 4-((3-(1-Fluorocyclopropyl)-2-methoxyphenyl)amino)-6-((5-fluoropyridin-2-yl)amino)-N-methylnicotinamide] is 12-fold lower in GI50: 3510 nM for the first, 285 nM for the second.

Going from `[2H]C([2H])([2H])NC(=O)c1cnc(NC(=O)C2CC2)cc1Nc1nn(C)c2ccn(CC3CC3(F)F)c(=O)c12` (stereo not drawn) [Example 107, 6-(Cyclopropanecarboxamido)-4-((5-((2,2-difluorocyclopropyl)methyl)-1-methyl-4-oxo-4,5-dihydro-1H-pyrazolo[4,3-c]pyridin-3-yl)amino)-N-(methyl-d3)nicotinamide] to `[2H]C([2H])([2H])NC(=O)c1cnc(Nc2ccc(F)cn2)cc1Nc1cn(C)c2c(F)cn(CC(F)(F)F)c(=O)c12` [Example 124, 4-((7-Fluoro-1-methyl-4-oxo-5-(2,2,2-trifluoroethyl)-4,5-dihydro-1H-pyrrolo[3,2-c]pyridin-3-yl)amino)-6-((5-fluoropyridin-2-yl)amino)-N-(methyl-d3)nicotinamide], the GI50 falls from 2100 nM to 34.8 nM (60-fold).

With `CCn1ccc2c(c(Nc3nc(Nc4ccc(F)cc4F)ncc3C(=O)NC)cn2C)c1=O` [Example 9, 2-((2,4-Difluorophenyl)amino)-4-((5-ethyl-1-methyl-4-oxo-4,5-dihydro-1H-pyrrolo[3,2-c]pyridin-3-yl)amino)-N-methylpyrimidine-5-carboxamide] the GI50 was 740 nM.
